Results published in ChEMBL document CHEMBL1201862, “PubChem BioAssay data set” (2004).
pIC50: −log10 of the molar value. The source made the active and inactive calls.

What was measured:
[1] = molecular target: T1, Alkaline phosphatase, tissue-nonspecific isozyme (Homo sapiens, UniProt P05186); assay: TNAP enzyme inhibition by screening hits, dose response, selectivity assay for mouse IAP inhibitor project, biochemical, human TNAP, uHTS hits (AID 488906); assay type: functional
T1 sequence (P05186 whole entry): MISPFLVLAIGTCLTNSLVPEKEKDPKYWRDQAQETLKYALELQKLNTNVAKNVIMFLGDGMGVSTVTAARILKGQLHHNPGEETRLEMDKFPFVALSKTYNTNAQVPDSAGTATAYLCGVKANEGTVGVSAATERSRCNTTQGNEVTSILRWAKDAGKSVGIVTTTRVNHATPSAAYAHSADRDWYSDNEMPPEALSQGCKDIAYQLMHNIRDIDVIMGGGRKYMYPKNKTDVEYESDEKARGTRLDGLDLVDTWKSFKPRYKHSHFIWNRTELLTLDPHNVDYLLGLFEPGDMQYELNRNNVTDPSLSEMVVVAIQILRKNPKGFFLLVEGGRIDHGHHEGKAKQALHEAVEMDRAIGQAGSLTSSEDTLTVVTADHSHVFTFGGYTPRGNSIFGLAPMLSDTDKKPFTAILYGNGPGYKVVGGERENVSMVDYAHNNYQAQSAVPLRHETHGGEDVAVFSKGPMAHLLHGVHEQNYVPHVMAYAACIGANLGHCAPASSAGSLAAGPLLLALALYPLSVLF

[2] = molecular target: DNA (cytosine-5)-methyltransferase 1 (Homo sapiens, UniProt P26358); assay: inhibition of DNA methylation by DNMT1 – biochemical, fluorescent molecular beacon, confirmation (AID 602386); assay type: functional
Bcl-2-like protein 1 = Bcl-2-like protein 1 (Homo sapiens, UniProt Q07817); assay: blockers of BCLXL peptide binding – biochemical, fluorescence polarization, 1536-well, selectivity assay for MCL1 inhibitor project, dose response (AID 2218)
[3] = molecular target: T2, Intestinal-type alkaline phosphatase (Homo sapiens, UniProt P09923); assay: activation of human intestinal alkaline phosphatase – biochemical, dose response (AID 488873); assay type: functional
[4] = molecular target: Intestinal-type alkaline phosphatase (Mus musculus, UniProt P24822); assay: PubChem AID 488785; assay type: functional
[5] = molecular target: Induced myeloid leukemia cell differentiation protein Mcl-1 (Homo sapiens, UniProt Q07820); assay: blockers of MCL1 binding to BIM peptide – biochemical, fluorescence polarization, BIM-BH3 peptide, 1536-well, dose response (AID 2217)
[6] = molecular target: T3, Small ubiquitin-related modifier 1 (Homo sapiens, UniProt P63165); assay: SUMO1 protein-protein binding blockers, potency – biochemical, FRET, dose response (AID 624383); assay type: functional; conditions: read-out: IC50_Mean
[7] = molecular target: T3, Small ubiquitin-related modifier 1; assay: SUMO1 protein interaction blockers, potency – biochemical, fluorescence polarization, uHTS hits, dose response (AID 624382); assay type: functional; conditions: read-out: IC50_Mean
[8] = molecular target: T4, Kappa-type opioid receptor (Homo sapiens, UniProt P41145); assay: SAR analysis of small molecule agonists of the kappa opioid receptor via a luminescent beta-arrestin assay - Set 2. [Related pubchem assays (depositor defined):AID1777, AID1785, AID1786, AID1966, AID2133, AID2136, AID2284, AID449737]; assay type: functional
[9] = molecular target: T4, Kappa-type opioid receptor; assay type: functional
Beta-galactosidase = Beta-galactosidase (Escherichia coli, UniProt Q8VNN2); assay type: functional
[10] = molecular target: T4, Kappa-type opioid receptor; assay type: functional; remark: listed apart in the source
[11] = molecular target: Eukaryotic translation initiation factor 4H (Homo sapiens, UniProt Q15056); assay: inhibitors of translation initiation factor eIF4H – SAR follow-up (AID 435011); assay type: functional
[12] = molecular target: Polyadenylate-binding protein 1 (Homo sapiens, UniProt P11940); assay: PABP inhibition in translation initiation, SAR follow-up (AID 435018); assay type: functional
[13] = molecular target: T2, Intestinal-type alkaline phosphatase; assay: Dose Response confirmation of uHTS hits from a small molecule inhibitors of human intestinal alkaline phosphatase via a luminescent assay. [Related pubchem assays (depositor defined):AID2544, AID2574]; assay type: functional
Cytochrome P450 2C9 = Cytochrome P450 2C9 (Homo sapiens, UniProt P11712)
T-cell = assay: loss of vesicle association with mouse CD8+ T cells – mouse 2C CD8+ T cells, flow cytometry, dose response (AID 485284); assay type: functional
Integrin alpha-L = Integrin alpha-L (Mus musculus, UniProt P24063); assay: modulators of CD8 T cell-vesicle binding, dose response, powder samples, mouse 2C CD8+ cells (AID 504565); assay type: functional
[14] = molecular target: DNA dC->dU-editing enzyme APOBEC-3G (Homo sapiens, UniProt Q9HC16); assay: Dose Response confirmation of small molecule APOBEC3G DNA Deaminase Inhibitors via a fluorescence-based single-stranded DNA deaminase assay. [Related pubchem assays (depositor defined):AID493012, AID493028]; assay type: functional
[15] = molecular target: DNA dC->dU-editing enzyme APOBEC-3A (Homo sapiens, UniProt P31941); assay: A3A deaminase inhibition for selectivity – biochemical, dose response (AID 504722); assay type: functional
[16] = molecular target: T5, Short transient receptor potential channel 4 (Mus musculus, UniProt Q9QUQ5); assay: potentiation of DAMGO-evoked TRPC4 calcium signal – cell-based, HEK293 TRPC4/mu-opioid, Fluo-4 calcium, EC20 DAMGO, dose response (AID 434941); assay type: functional
T5 sequence (Q9QUQ5 whole entry): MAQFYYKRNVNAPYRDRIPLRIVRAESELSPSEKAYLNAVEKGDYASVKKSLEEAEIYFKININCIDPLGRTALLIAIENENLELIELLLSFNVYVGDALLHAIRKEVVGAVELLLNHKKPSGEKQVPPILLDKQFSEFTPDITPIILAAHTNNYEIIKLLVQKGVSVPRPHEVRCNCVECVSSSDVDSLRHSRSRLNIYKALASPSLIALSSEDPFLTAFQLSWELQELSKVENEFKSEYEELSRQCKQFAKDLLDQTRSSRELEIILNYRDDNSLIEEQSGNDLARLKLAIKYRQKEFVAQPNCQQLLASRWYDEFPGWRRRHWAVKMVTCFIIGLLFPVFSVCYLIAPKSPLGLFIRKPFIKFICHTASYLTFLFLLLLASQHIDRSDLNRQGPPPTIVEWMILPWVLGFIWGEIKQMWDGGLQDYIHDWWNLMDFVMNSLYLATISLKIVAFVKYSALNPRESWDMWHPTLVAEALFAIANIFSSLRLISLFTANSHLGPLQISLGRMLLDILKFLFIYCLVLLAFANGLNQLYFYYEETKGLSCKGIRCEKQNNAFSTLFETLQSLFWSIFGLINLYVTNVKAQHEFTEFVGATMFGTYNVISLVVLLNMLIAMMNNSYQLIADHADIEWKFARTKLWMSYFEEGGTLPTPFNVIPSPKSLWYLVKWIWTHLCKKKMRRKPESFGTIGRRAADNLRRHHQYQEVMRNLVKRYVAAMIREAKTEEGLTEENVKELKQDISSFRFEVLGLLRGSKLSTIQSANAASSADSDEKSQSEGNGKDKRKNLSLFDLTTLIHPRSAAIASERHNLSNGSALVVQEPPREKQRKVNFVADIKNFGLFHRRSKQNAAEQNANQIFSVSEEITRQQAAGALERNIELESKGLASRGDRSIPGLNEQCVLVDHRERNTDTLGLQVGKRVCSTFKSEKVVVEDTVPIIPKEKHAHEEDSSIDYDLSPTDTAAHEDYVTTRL

[17] = alpha-synuclein stem-loop luciferase translation blockers – H4 neuroglioma cells, luminescence, confirmation (AID 1988); assay type: functional, cell-based
cells = assay type: functional
[18] = molecular target: ATP-dependent molecular chaperone HSP82 (Candida albicans (strain WO-1) (Yeast), UniProt C4YTQ8); assay: steroid-induced GRE reporter decrease in yeast – S. cerevisiae, luminescence, Hsp90 inhibitor project, dose response (AID 2400); assay type: functional, cell-based;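 note: beta-galactosidase luminescence from glucocorticoid response element reporter as proxy for Hsp90 function; inhibitor potency where signal loss means Hsp90 inhibition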
[19] = Luminescence Cell-Based Dose Response HTS to Identify Inhibitors of 5'UTR Stem-Loop Driven Prion Protein mRNA Translation in H4 Neuroglioblastoma Cells. [Related pubchem assays: 1827 (Project Summary), 1813 (Primary HTS)]; assay type: functional
[20] = molecular target: T6, Heat shock factor protein 1 (Mus musculus, UniProt P38532); assay: decrease of HSF1-responsive luciferase luminescence – cell-based, NIH3T3, dose retest, confirmation (AID 2382); assay type: functional;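 note: NIH3T3 fibroblasts with HSF1-driven luciferase reporter stressed by proteasome inhibitor MG132; luminescence from HSF1-driven luciferase expression after 8 hours of MG132 stress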
T6 sequence (P38532 whole entry): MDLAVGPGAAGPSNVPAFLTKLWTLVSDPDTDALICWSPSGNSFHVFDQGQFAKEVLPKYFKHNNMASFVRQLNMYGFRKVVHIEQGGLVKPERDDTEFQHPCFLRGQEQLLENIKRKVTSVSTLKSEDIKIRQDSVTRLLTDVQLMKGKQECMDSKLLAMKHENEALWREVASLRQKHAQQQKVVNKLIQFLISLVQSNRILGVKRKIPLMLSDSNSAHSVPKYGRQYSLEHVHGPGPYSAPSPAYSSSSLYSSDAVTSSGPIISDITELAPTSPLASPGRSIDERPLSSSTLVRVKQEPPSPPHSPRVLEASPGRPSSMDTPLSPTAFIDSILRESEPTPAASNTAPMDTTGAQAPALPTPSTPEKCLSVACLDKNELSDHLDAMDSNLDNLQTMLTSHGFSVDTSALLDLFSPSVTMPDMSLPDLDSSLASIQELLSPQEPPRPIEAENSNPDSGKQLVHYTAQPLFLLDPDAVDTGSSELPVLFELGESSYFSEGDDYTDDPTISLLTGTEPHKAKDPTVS

[21] = NIH-3T3 fibroblast cytotoxicity, dose response, cytotoxicity control, cell-based, fluorescence, Alamar Blue, secondary assay (AID 2327); assay type: functional;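 note: NIH-3T3 mouse fibroblasts cultured with fluconazole at 8 µg/mL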
Cytochrome P450 3A4 = Cytochrome P450 3A4 (Homo sapiens, UniProt P08684);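 note: CYP3A4 tested as one member of a cytochrome P450 panel screen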
[22] = Vero E6 cell cytotoxicity, dose response, cytotoxicity control for non-replicating M. tuberculosis project, secondary assay (AID 492998); assay type: functional, VeroE6; conditions: Vero C1008
[23] = luciferase reporter signal suppression in cells – H4 neuroglioma cells, luminescence, dose response (AID 1990); assay type: functional, cell-based
[24] = fluconazole-exposed Candida albicans growth modulators – fluorescence, retest, confirmation (AID 2467); assay type: functional, cell-based
[25] = THP-1 cell cytotoxicity, dose response, cytotoxicity control for non-replicating M. tuberculosis project (AID 489025); assay type: functional
[26] = molecular target: Serine/threonine-protein phosphatase (Candida dubliniensis (strain CD36 / CBS 7987 / NCPF 3949 / NRRLY-17841) (Yeast), UniProt B9W6M3); assay: blockers of CaCl2-induced CDRE-lacZ signaling – S. cerevisiae, luminescence, secondary, dose response (AID 2388); assay type: functional, cell-based;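 note: yeast reporter cells carrying a calcineurin-responsive lacZ construct stimulated with calcium chloride; luminescent beta-galactosidase reporter signal in whole cells rather than isolated phosphatase activity; potency for inhibition where a drop in reporter signal means calcineurin blockade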
[27] = molecular target: NACHT, LRR and PYD domains-containing protein 3 (Homo sapiens, UniProt Q96P20); assay: NALP3 inhibitors in yeast, dose response, luminescent (AID 488799); assay type: functional
[28] = HepG2 cell cytotoxicity, dose response, cytotoxicity control for non-replicating M. tuberculosis project (AID 489018); assay type: functional; conditions: Mycobacterium tuberculosis
[29] = molecular target: T7, Tyrosine-protein phosphatase non-receptor type 7 (Homo sapiens, UniProt P35236); assay: redox-active compounds inhibiting HePTP phosphatase – biochemical, fluorescence, mechanism study (AID 2068); assay type: functional
T7 sequence (P35236 whole entry): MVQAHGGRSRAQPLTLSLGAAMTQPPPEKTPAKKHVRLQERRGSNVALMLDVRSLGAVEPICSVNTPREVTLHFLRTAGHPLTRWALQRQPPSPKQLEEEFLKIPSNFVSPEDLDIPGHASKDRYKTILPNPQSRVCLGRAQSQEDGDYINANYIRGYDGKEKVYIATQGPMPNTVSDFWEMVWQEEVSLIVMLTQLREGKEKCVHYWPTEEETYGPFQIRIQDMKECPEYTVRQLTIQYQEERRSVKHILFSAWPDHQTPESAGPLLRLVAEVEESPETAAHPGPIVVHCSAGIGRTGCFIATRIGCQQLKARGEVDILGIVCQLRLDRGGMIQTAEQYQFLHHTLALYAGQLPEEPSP

T4 sequence (P41145 whole entry): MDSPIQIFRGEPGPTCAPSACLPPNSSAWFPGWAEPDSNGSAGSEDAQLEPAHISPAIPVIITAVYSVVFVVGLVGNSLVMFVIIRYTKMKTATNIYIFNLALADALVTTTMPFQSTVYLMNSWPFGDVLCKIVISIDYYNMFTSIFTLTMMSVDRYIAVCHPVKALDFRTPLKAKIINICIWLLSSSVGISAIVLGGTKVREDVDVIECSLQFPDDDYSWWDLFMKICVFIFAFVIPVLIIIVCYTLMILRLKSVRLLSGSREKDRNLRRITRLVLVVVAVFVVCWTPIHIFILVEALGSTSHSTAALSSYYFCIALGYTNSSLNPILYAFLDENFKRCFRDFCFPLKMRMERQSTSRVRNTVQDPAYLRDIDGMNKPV
T2 sequence (P09923 whole entry): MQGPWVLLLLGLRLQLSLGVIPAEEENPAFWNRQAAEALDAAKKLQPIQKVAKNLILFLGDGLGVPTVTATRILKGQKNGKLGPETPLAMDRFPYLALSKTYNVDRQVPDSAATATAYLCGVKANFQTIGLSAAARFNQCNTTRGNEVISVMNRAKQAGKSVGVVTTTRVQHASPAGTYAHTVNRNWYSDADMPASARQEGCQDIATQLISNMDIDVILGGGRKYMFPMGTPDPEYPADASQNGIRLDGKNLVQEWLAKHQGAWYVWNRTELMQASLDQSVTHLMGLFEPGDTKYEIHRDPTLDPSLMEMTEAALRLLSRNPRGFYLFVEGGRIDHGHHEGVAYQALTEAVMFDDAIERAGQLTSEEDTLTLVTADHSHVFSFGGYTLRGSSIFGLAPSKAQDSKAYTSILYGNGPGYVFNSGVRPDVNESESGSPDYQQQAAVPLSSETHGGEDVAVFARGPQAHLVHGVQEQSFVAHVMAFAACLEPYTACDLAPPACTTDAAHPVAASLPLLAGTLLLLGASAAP
T3 sequence (P63165 whole entry): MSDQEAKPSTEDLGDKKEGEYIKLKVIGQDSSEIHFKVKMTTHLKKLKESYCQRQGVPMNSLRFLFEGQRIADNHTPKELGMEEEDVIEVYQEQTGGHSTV
Sequence of Polyadenylate-binding protein 1 (P11940 whole entry): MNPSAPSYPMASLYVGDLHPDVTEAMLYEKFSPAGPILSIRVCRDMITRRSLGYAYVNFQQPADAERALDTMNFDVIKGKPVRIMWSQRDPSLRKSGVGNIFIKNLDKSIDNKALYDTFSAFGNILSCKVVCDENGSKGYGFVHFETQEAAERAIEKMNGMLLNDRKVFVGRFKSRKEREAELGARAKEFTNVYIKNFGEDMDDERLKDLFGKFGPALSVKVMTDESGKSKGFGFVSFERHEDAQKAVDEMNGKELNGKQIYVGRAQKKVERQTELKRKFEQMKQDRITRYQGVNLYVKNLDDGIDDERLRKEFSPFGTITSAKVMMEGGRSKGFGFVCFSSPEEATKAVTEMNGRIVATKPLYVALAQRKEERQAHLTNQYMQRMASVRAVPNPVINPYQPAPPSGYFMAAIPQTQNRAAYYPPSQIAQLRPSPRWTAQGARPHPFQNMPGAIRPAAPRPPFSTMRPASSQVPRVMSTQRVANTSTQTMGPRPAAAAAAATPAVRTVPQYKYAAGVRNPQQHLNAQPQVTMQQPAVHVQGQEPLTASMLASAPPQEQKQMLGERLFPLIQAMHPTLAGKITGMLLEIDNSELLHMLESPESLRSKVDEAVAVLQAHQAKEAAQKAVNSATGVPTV
Sequence of DNA dC->dU-editing enzyme APOBEC-3A (P31941 whole entry): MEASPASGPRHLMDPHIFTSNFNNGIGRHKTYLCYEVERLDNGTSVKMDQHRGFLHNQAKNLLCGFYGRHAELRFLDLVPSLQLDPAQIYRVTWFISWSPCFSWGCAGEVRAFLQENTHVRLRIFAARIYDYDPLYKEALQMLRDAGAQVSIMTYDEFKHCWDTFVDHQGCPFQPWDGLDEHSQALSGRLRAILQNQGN
Sequence of Bcl-2-like protein 1 (Q07817 whole entry): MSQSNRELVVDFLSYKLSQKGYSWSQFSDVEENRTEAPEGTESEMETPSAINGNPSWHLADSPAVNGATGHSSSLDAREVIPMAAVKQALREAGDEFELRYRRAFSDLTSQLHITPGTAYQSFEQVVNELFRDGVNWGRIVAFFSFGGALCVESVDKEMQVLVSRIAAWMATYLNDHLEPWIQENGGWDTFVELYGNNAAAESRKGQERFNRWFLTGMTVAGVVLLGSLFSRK
Sequence of Serine/threonine-protein phosphatase (B9W6M3 whole entry, the tested form may be a part): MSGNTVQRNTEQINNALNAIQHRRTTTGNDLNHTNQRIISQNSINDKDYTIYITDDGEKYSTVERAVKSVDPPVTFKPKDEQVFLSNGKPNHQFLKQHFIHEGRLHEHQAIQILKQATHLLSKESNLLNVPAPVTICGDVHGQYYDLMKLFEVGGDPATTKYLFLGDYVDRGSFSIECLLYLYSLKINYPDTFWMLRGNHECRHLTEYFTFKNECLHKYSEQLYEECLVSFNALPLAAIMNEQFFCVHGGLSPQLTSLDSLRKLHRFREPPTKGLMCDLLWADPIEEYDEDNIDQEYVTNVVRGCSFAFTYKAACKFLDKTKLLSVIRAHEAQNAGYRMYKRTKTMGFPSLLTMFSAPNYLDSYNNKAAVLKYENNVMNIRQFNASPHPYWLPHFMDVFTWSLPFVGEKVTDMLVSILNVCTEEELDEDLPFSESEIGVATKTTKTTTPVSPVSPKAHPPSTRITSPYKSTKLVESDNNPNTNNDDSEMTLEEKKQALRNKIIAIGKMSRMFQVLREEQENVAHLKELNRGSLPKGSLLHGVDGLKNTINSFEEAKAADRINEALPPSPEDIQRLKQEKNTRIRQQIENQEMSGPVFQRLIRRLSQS
Sequence of Intestinal-type alkaline phosphatase (Mus musculus, UniProt P24822) (P24822 whole entry): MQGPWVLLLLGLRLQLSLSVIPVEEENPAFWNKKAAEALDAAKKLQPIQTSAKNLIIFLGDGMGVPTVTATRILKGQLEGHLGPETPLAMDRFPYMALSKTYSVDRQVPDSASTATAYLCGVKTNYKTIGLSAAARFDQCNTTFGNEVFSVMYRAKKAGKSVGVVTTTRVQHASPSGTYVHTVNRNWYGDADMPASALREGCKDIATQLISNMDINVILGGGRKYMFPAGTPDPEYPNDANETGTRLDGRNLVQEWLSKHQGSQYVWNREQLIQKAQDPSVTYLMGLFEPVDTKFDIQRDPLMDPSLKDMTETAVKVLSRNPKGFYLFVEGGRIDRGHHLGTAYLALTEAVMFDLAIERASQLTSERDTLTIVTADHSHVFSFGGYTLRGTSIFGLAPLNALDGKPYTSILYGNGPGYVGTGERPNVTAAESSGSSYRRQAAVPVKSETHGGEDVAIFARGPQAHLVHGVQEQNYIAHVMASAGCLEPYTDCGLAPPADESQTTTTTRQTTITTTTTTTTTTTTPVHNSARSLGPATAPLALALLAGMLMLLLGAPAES
Sequence of Cytochrome P450 3A4 (P08684 whole entry): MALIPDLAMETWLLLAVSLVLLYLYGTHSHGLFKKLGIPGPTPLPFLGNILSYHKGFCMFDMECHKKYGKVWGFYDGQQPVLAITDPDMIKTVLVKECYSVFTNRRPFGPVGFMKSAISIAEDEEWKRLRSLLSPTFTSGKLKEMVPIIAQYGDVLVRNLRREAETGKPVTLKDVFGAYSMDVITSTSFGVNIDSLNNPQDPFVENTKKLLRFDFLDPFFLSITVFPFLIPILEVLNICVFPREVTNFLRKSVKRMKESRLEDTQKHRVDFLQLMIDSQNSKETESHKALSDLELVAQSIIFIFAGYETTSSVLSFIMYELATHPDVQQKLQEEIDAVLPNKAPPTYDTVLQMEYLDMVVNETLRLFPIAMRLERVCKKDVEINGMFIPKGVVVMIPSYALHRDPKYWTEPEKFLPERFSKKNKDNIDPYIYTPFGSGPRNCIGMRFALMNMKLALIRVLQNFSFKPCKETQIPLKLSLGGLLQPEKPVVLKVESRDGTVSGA
Sequence of ATP-dependent molecular chaperone HSP82 (C4YTQ8 whole entry): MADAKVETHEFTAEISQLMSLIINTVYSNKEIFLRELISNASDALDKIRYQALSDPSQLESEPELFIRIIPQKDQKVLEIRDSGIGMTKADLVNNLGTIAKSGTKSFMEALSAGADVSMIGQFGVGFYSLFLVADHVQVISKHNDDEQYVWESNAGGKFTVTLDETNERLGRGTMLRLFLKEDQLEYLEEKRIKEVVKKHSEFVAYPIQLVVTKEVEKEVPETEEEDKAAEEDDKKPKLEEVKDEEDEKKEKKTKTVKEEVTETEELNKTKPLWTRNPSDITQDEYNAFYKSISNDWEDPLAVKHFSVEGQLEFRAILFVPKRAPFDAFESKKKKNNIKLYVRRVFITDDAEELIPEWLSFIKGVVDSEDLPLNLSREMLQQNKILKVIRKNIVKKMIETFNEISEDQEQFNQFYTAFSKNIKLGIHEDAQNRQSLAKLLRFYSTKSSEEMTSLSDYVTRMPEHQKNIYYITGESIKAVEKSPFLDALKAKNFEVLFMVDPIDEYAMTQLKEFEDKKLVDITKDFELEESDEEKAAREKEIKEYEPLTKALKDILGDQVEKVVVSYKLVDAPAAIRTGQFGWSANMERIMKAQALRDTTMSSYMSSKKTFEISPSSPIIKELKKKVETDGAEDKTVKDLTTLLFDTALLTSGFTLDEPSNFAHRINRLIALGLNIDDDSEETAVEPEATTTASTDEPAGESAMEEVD

O=S(=O)(c1cc(O)ccc1O)c1cccc2c(S(=O)(=O)c3cc(O)ccc3O)cccc12
IC50 [1]: 38.9 µM (active)
IC50 [2]: 3.81 µM (active)
IC50 (Bcl-2-like protein 1): > 109 µM (not active)
EC50 [3]: 15 µM (active)
IC50 [4]: 12.8 µM (active)
IC50 [5]: 8.31 µM (active)
IC50 [6]: 5.39 µM (active)
IC50 [7]: > 66.6 µM (inactive)

O=C(CN(Cc1cccs1)C(=O)c1cccnc1)NC1CCCCCC1
EC50 [8]: > 20 µM (inactive)

COc1cc2c(cc1OC)C1(CCCC1)CNC2c1cccc([N+](=O)[O-])c1 (stereo unspecified)
pIC50 [9]: < 4.49
EC50 (Beta-galactosidase): 8.91 µM (active)
IC50 [10]: 5.26 µM (active)

COc1ccc([N+](=O)[O-])cc1NC(=O)C(C)OC(=O)c1ccc(NC(N)=O)cc1 (stereo unspecified)
IC50 [11]: > 100 µM (inactive)
IC50 [12]: > 100 µM (inactive)

CCCn1c(/C=C/c2ccccc2)nc2ccccc21
IC50 [13]: > 100 µM (inactive)
AC50 (Cytochrome P450 2C9): inconclusive

CCN(CC)S(=O)(=O)c1ccc(Cl)c(NC(=O)COC(=O)C2CCCCC2)c1
EC50 (T-cell): 0.246 µM (active)
EC50 (Integrin alpha-L): 0.026 µM (active)

COc1ccccc1-n1c(S)nnc1-c1ccccc1
IC50 [14]: 4.11 µM (active)
IC50 [15]: > 100 µM (inactive)

CCn1c(O)c(N=NC(=O)c2cccc(S(=O)(=O)N3CCCCC3)c2)c2ccccc21
EC50 [16]: 2.37 µM (active)

O=c1c2ccc(Cl)cc2nc(-c2cccc(C(F)(F)F)c2)n1O
EC50 [17]: 6.6 µM (active)
IC50 (cells): 6.27 µM (active)
EC50 [18]: 15.6 µM (active)
EC50 [19]: 9.65 µM (active)
EC50 [20]: > 195 µM (not active)
EC50 [21]: > 150 µM (inactive)
AC50 (Cytochrome P450 3A4): 28.2 µM (inconclusive)
CC50 [22]: 5.29 µM (active)
EC50 [23]: 10.4 µM (active)
EC50 [24]: 0.605 µM (active)
CC50 [25]: 2.96 µM (active)
EC50 [26]: > 180 µM (inactive)
IC50 [27]: 11 µM (active)
CC50 [28]: 11.9 µM (active)

O=C(Nc1ccc2nc(-c3ccco3)c(-c3ccco3)nc2c1)NC1CCCCC1
IC50 [29]: > 50 µM (inactive)
